Consider 28 molecules from ChEMBL document CHEMBL1146257, “2,6-Quinolinyl derivatives as potent VLA-4 antagonists” (Bioorg Med Chem Lett, 2007).

The structures appear in SMILES notation. Converted amounts (≈) assume the structure as drawn. Some results are limits rather than exact numbers.

One data set relates to U-937. In words: Inhibition of human recombinant VACM1 binding to VAL4 expressed in U937 cells at 1 uM by adhesion test. The data set is classed as cell-based.
A short description of data set [1]: Inhibition of human recombinant VACM1 binding to VAL4 expressed in U937 cells by adhesion test. Conditions: u-937. The data set is classed as cell-based.
A short description of data set [2]: Inhibition of fibronectin binding to VAL4 expressed in Jurkat cells by adhesion test. The format is cell-based, Homo sapiens.
Data set [3] is described as follows: Inhibition of T cell activation assessed as CD3-VACM interaction. The data set is classed as functional, cell-based, Homo sapiens.
Data set [4] can be described thus: Oral bioavailability in mouse. The format is ADME, organism-based. Particulars: in vivo.
Data set [5] can be described thus: Oral bioavailability in rat. Conditions: in vivo. The format is ADME, organism-based.
The nature of data set [6]: Oral bioavailability in dog. Particulars: in vivo. The data set is classed as ADME, organism-based, Canis lupus familiaris.
Data set [7] can be described thus: Oral bioavailability in monkey. The format is ADME, organism-based, Macaca mulatta. Conditions: rhesus monkey, in vivo.
The nature of data set [8]: Solubility at pH 7.4. Conditions: buffer. The format is physicochemical.
Data set [9] in a line: Distribution coefficient, log D of the compound. Particulars: octanol/water. The data set is classed as physicochemical.
In data set [10] the target is Integrin alpha-4/beta-1 (VLA-4) (Homo sapiens). In words: Inhibition of VCAM binding to integrin alpha4beta1 by human whole blood assay.

As to `O=C(NC(Cc1ccc2nc(-c3ccccc3)ccc2c1)C(=O)O)c1c(Cl)cccc1Cl` (stereo not drawn), the inhibition in the data set on U-937 came out at 24%.

Take `O=C(NC(Cc1ccc2nc(-c3c(Cl)cccc3Cl)ccc2c1)C(=O)O)c1c(F)cccc1F` (stereo not drawn): the IC50 in [1] is 435 nM.

Take `Cc1cccc(C)c1-c1ccc2cc(CC(NC(=O)c3c(Cl)cccc3Cl)C(=O)O)ccc2n1` (stereo not drawn): the concentration for half-maximal inhibition (IC50) in [1] came out at 102 nM.

For the molecule `O=C(NC(Cc1ccc2nc(-c3c(Cl)cccc3[N+](=O)[O-])ccc2c1)C(=O)O)c1c(Cl)cccc1Cl` (stereo not drawn), in data set [1], the IC50 was found to be 6.5 nM.

For `O=C(O)C(Cc1ccc2nc(-c3c(Cl)cccc3Cl)ccc2c1)NC(=O)[C@@H]1CCC(=O)N1Cc1ccccc1` (stereo partly drawn), in data set [1], the IC50 is 15.3 nM.

With `COc1cccc(OC)c1-c1ccc2cc(CC(NC(=O)c3c(Cl)cccc3Cl)C(=O)O)ccc2n1` (stereo not drawn), the IC50 in data set [1] was found to be 20 nM.

In the case of `Cc1cc(Cl)c(C(=O)NC(Cc2ccc3nc(-c4c(Cl)cccc4Cl)ccc3c2)C(=O)O)c(Cl)n1` (stereo not drawn), the IC50 in data set [1] amounted to 7.9 nM.

For the molecule `O=C(NC(Cc1ccc2nc(-c3c(F)cccc3Cl)ccc2c1)C(=O)O)c1c(Cl)cccc1Cl` (stereo not drawn), in data set [1], the IC50 came to 20 nM.

For the molecule `O=C(NC(Cc1ccc2nc(-c3ccncc3)ccc2c1)C(=O)O)c1c(Cl)cccc1Cl` (stereo not drawn), in data set [1], the IC50 stood at 381 nM.

On to `Cc1cccc(C)c1C(=O)NC(Cc1ccc2nc(-c3c(Cl)cccc3Cl)ccc2c1)C(=O)O` (stereo not drawn), for which the IC50 in data set [1] turned out to be 37.2 nM.

`O=C(NC(Cc1ccc2nc(-c3cc(Cl)nc(Cl)c3)ccc2c1)C(=O)O)c1c(Cl)cccc1Cl` (stereo not drawn): the IC50 in data set [1] stood at 8.6 nM.

Consider `O=C(N[C@@H](Cc1ccc2nc(-c3c(Cl)cccc3Cl)ccc2c1)C(=O)O)c1c(Cl)cccc1Cl`, for which the IC50 is 3.9 nM in data set [1], 1.6 nM in data set [2], 43 nM in [3] and 95 nM in [10]. In addition, the bioavailability stood at 35% in data set [4], 41% in data set [5], 59% in [6] and 23% in data set [7]. The molecule also had a solubility in data set [8] of 1.5 µg/mL (≈ 2.81 µM). In [9], this molecule had a logD of 1.47.

Regarding `COc1cccc(OC)c1-c1ccc(C[C@H](NC(=O)c2c(Cl)cccc2Cl)C(=O)O)cc1`, the IC50 in data set [1] came out at 18 nM; in data set [3], 99 nM.

For `O=C(NC(Cc1ccc2nc(-c3c(Cl)cccc3Cl)ccc2c1)C(=O)O)c1ccccc1` (stereo not drawn), the IC50 in [1] turned out to be 5640 nM.

Turning to `O=C(N[C@H](Cc1ccc2nc(-c3c(Cl)cccc3Cl)ccc2c1)C(=O)O)c1c(Cl)cccc1Cl`, the IC50 in data set [1] was more than 3200 nM.

In the case of `Cc1cccc(Cl)c1C(=O)NC(Cc1ccc2nc(-c3c(Cl)cccc3Cl)ccc2c1)C(=O)O` (stereo not drawn), in [1], the IC50 turned out to be 3.9 nM.

`COc1ccc2ccccc2c1-c1ccc2cc(CC(NC(=O)c3c(Cl)cccc3Cl)C(=O)O)ccc2n1` (stereo not drawn): in data set [1], the 50% inhibitory concentration (IC50) was 7.3 nM.

Turning to `O=C(NC(Cc1ccc2nc(-c3ccccc3Br)ccc2c1)C(=O)O)c1c(Cl)cccc1Cl` (stereo not drawn), the IC50 in [1] was 154 nM.

On to `O=C(NC(Cc1ccc2nc(-c3c(F)cccc3F)ccc2c1)C(=O)O)c1c(Cl)cccc1Cl` (stereo not drawn), for which the IC50 in data set [1] came out at 372 nM.

For the molecule `O=C(NC(Cc1ccc2nc(-c3ccccc3C(F)(F)F)ccc2c1)C(=O)O)c1c(Cl)cccc1Cl` (stereo not drawn), the IC50 in data set [1] came out at 92 nM.

With `O=C(NC(Cc1ccc2nc(-c3c(Cl)cccc3Cl)ccc2c1)C(=O)O)c1c(Cl)cccc1Cl` (stereo not drawn), the IC50 in [1] amounted to 7.8 nM.

For `O=C(NC(Cc1ccc2nc(-c3ccc(Cl)cc3Cl)ccc2c1)C(=O)O)c1c(Cl)cccc1Cl` (stereo not drawn), in data set [1], the IC50 is 748 nM.

Take `O=C(NC(Cc1ccc2nc(-c3nccs3)ccc2c1)C(=O)O)c1c(Cl)cccc1Cl` (stereo not drawn): the inhibition in the data set with U-937 came out at 38%.

`CS(=O)(=O)c1ccc(-c2ccc3cc(CC(NC(=O)c4c(Cl)cccc4Cl)C(=O)O)ccc3n2)cc1` (stereo not drawn): the inhibition with U-937 turned out to be 82%.

For the molecule `O=C(NC(Cc1ccc2nc(-c3cc(C(F)(F)F)ccc3Cl)ccc2c1)C(=O)O)c1c(Cl)cccc1Cl` (stereo not drawn), in [1], the IC50 turned out to be 208 nM.

On to `COc1cccc(OC)c1C(=O)NC(Cc1ccc2nc(-c3c(Cl)cccc3Cl)ccc2c1)C(=O)O` (stereo not drawn), for which the IC50 in data set [1] is 53.7 nM.

Take `CS(=O)(=O)c1ccc(C(=O)NC(Cc2ccc3nc(-c4c(Cl)cccc4Cl)ccc3c2)C(=O)O)c(Cl)c1` (stereo not drawn): the half-maximal inhibitory concentration (IC50) in data set [1] is 3.5 nM.

`O=C(O)C(Cc1ccc2nc(-c3c(Cl)cccc3Cl)ccc2c1)NC(=O)C1(c2ccc(Cl)cc2)CCCC1` (stereo not drawn): the IC50 in [1] is 6.6 nM.

By inhibition is commonly meant the share of the control response that was lost under treatment. The term IC50 denotes the midpoint of a concentration-inhibition curve. The bioavailability is dose-corrected exposure relative to a reference, in per cent. As a reminder, the solubility is the concentration that dissolves in the medium under given conditions. One may read the logD as lipophilicity at a set pH, counting ionised and neutral species.
